# Reference: paper PMC10439028, “SGLT5 is the renal transporter for 1,5-anhydroglucitol, a major player in two rare forms of neutropenia” (Cellular and Molecular Life Sciences: CMLS, 2023)
# Target: T1, mouse SGLT4 (Mus musculus, UniProt Q8VDT1)
# T1 construct: expressed in transfected cells; host or cells: HEK293T
# T1 sequence (Q8VDT1 1-685): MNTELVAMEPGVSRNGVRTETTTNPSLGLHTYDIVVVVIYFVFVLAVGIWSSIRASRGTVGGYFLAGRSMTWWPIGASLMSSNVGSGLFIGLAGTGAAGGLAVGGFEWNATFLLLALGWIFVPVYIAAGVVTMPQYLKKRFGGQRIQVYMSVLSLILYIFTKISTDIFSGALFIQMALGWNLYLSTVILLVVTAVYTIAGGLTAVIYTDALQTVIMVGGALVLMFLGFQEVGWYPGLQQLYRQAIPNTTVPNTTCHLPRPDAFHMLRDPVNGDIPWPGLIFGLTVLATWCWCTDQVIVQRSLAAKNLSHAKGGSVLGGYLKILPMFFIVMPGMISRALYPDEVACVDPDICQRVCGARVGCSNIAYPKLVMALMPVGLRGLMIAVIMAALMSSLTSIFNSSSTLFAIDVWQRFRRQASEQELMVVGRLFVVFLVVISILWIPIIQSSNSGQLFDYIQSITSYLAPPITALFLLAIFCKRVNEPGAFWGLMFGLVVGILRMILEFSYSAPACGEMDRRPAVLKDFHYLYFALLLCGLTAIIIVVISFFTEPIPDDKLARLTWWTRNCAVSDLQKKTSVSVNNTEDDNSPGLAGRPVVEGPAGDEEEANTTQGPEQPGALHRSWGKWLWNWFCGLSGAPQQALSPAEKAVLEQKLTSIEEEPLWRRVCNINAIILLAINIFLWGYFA
# Assay: Inhibition of 50 µM mannose transport in HEK293T cells expressing mouse SGLT4
# Type: cell-based
# Conditions: 10 mM 1,5-AG
# Protocol: Supplementary Fig. 4: Transport activities for 1,5-anhydroglucitol and mannose of recombinant mouse SGLT4 and SGLT5 isoforms measured in HEK293T cells.
# Transport was measured in 24 well plates with 0.6x10^6 cells during 30 mins at 37°C in 5% CO2 in the presence of the indicated concentrations of 2-[1H+3H]-1,5-AG for both mSGLT4 (A) and mSGLT5 (B) and U-[12C+14C]-mannose (C) for mSGLT4. The saturation curves for the transport activities and the derived kinetic constants (Km and Vmax) are shown and indicate that mSGLT4 appears to be able to transport 1,5-anhydroglucitol but with a very low affinity (Km > 5 mM – panel A) compared to mannose (Km = 0.2 mM – panel C), while mSGLT5 transports efficiently 1,5-anhydroglucitol (Km = 0.5 mM – panel B). (D) 10 mM 1,5- […]
# U-[12C+14C]-mannose) for both the human (hSGLT4) and the mouse (mSGLT4) isoforms of […]
# (also on this page, place not known: Transport of (pmol/min/100 cells) Transport of (pmol/min/100 cells) 000 Transport of 1,5-AG (pmol/min/100 000 cells) 000 hSGLT4 mSGLT4 Mannose transport activity (% of the value at [12C+14C]-mannose) 50 µM mannose 1,5-AG)
smiles,measurement,value
"OC[C@H]1OC[C@H](O)[C@@H](O)[C@@H]1O [1,5-AG, 1,5-anhydroglucitol]",inhibition of mouse SGLT4 transport activity,barely inhibited
